The target in the assay is T1, human vasopressin V1b receptor (Homo sapiens, UniProt P47901).
T1 construct: expressed in transfected cells; host or cells: CHO-K1 (cell line hV1b_3H2_CHO), membrane preparation
T1 sequence (P47901 1-424): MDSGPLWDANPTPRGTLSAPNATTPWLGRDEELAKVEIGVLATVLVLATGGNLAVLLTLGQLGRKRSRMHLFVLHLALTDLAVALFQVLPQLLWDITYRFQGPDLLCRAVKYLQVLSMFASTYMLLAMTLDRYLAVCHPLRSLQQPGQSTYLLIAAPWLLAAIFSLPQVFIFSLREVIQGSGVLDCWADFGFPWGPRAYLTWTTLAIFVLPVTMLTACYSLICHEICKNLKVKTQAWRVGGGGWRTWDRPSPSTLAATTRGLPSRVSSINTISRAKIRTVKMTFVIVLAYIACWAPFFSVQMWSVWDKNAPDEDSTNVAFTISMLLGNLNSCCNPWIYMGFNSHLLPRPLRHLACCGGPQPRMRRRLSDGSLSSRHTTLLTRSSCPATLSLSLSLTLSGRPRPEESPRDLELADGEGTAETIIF
Put plainly: Vasopressin V1b receptor binding test. To be noted: membranes of CHO-K1 cells with human V1b receptor, displacement of 1.5 nM 3H-AVP; for compounds with more than one stereogenic center the diastereomer with greater affinity. In short, it runs like this:
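Radioligand displacement on membranes carrying human V1b receptor in 50 mM tris, 10 mM MgCl2, 0.1% BSA, pH 7.4, 2% DMSO final; 60 min at room temperature, nonspecific binding with 1 μM AVP. Free ligand removed by filtration, bound counted by liquid scintillation, Ki from nonlinear regression of triplicates.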

Where only a bound is given, the exact number is not on record here.

These results are taken from patent publication US8044079B2, “Substituted oxindole derivatives, medicaments containing said derivatives and use thereof” (Abbott GmbH & Co. KG, priority 2005, dated 2011).

Compound `COc1ccc(S(=O)(=O)N2C(=O)C(c3cc(CN4CCN(C)CC4)ccc3OC)(N3C[C@H](O)C[C@H]3c3ncco3)c3cc(Cl)ccc32)cc1` (stereo partly drawn) [Example 103, 5-Chloro-3-((2S,4R)-4-hydroxy-2-oxazol-2-yl-pyrrolidin-1-yl)-1-(4-methoxybenzenesulfonyl)-3-[2-methoxy-5-(4-methylpiperazin-1-ylmethyl)phenyl]-1,3-dihydroindol-2-one] yielded a Ki of less than 10 nM.

As for `COc1ccc(S(=O)(=O)N2C(=O)C(c3cc(CN4CCN(C(C)C)CC4)ccc3OC)(N3CCC[C@H]3c3ncco3)c3cc(Cl)c(Cl)cc32)cc1` (stereo partly drawn) [Example 104, 5,6-Dichloro-3-[5-(4-isopropylpiperazin-1-ylmethyl)-2-methoxyphenyl]-1-(4-methoxybenzenesulfonyl)-3-((S)-2-oxazol-2-yl-pyrrolidin-1-yl)-1,3-dihydroindol-2-one], the Ki was 10 to 100 nM.

`CNCc1ccc(OC)c(C2(N3C[C@H](O)C[C@H]3c3ncco3)C(=O)N(S(=O)(=O)c3ccc(OC)cc3)c3ccc(Cl)cc32)c1` (stereo partly drawn) [Example 105, 5-Chloro-3-((2S,4R)-4-hydroxy-2-oxazol-2-yl-pyrrolidin-1-yl)-1-(4-methoxybenzenesulfonyl)-3-(2-methoxy-5-(methylaminomethyl)phenyl)-1,3-dihydroindol-2-one] returned a Ki of less than 10 nM.

Compound `COc1ccc(S(=O)(=O)N2C(=O)C(c3cc(CNC(C)(C)C)ccc3OC)(N3CCC[C@H]3c3ncco3)c3cc(Cl)c(Cl)cc32)cc1` (stereo partly drawn) [Example 106, 5,6-Dichloro-3-[5-(tert-butylaminomethyl)-2-methoxyphenyl]-1-(4-methoxybenzenesulfonyl)-3-((S)-2-oxazol-2-yl-pyrrolidin-1-yl)-1,3-dihydroindol-2-one] had an inhibition constant Ki of 10 to 100 nM.

The compound `COc1ccc(S(=O)(=O)N2C(=O)C(c3cc(CN4CCN(CCO)CC4)ccc3OC)(N3CCC[C@H]3c3ncco3)c3cc(Cl)c(Cl)cc32)cc1` (stereo partly drawn) [Example 107, 5,6-Dichloro-3-{5-[4-(2-hydroxyethyl)piperazin-1-ylmethyl]-2-methoxyphenyl}-1-(4-methoxybenzenesulfonyl)-3-((S)-2-oxazol-2-yl-pyrrolidin-1-yl)-1,3-dihydroindol-2-one] showed a Ki of 10 to 100 nM.

The compound `COc1ccc(S(=O)(=O)N2C(=O)C(NCc3ncco3)(c3cc(CN(C)C)ccc3OC)c3cc(Cl)ccc32)cc1` (stereo not shown) [Example 108, 5-Chloro-3-(5-dimethylaminomethyl-2-methoxyphenyl)-1-(4-methoxybenzenesulfonyl)-3-[(oxazol-2-ylmethyl)amino]-1,3-dihydroindol-2-one] had a Ki of 10 to 100 nM.

In turn, `COc1ccc(S(=O)(=O)N2C(=O)C(NCc3ncco3)(c3cc(CN4CCCC4)ccc3OC)c3cc(Cl)ccc32)cc1` (stereo not shown) [Example 109, 5-Chloro-1-(4-methoxybenzenesulfonyl)-3-(2-methoxy-5-pyrrolidin-1-ylmethylphenyl)-3-[(oxazol-2-ylmethyl)amino]-1,3-dihydroindol-2-one] showed a Ki of 10 to 100 nM.

The compound `COc1ccc(S(=O)(=O)N2C(=O)C(NCc3ncco3)(c3cc(CN4CCN(C)CC4)ccc3OC)c3cc(Cl)ccc32)cc1` (stereo not shown) [Example 110, 5-Chloro-1-(4-methoxybenzenesulfonyl)-3-[2-methoxy-5-(4-methylpiperazin-1-ylmethyl)phenyl]-3-[(oxazol-2-ylmethyl)amino]-1,3-dihydroindol-2-one] displayed a Ki of 10 to 100 nM.

In turn, `COc1ccc(S(=O)(=O)N2C(=O)C(NCc3ncco3)(c3cc(CNCCO)ccc3OC)c3cc(Cl)ccc32)cc1` (stereo not shown) [Example 111, 5-Chloro-3-{5-[(2-hydroxyethylamino)methyl]-2-methoxyphenyl}-1-(4-methoxybenzenesulfonyl)-3-[(oxazol-2-ylmethyl)amino]-1,3-dihydroindol-2-one] yielded a Ki of 10 to 100 nM.

Consider `COc1ccc(S(=O)(=O)N2C(=O)C(c3cc(CN4CCNCC4)ccc3OC)(N3C[C@H](O)C[C@H]3c3ncco3)c3cc(Cl)ccc32)cc1` (stereo partly drawn) [Example 113, 5-Chloro-3-((2S,4R)-4-hydroxy-2-oxazol-2-yl-pyrrolidin-1-yl)-1-(4-methoxybenzenesulfonyl)-3-(2-methoxy-5-(piperazin-1-ylmethyl)phenyl)-1,3-dihydroindol-2-one], for which the Ki was less than 10 nM.

Take `COc1ccc(S(=O)(=O)N2C(=O)C(c3cc(CN4CCCC4)ccc3OC)(N3C[C@H](O)C[C@H]3c3ncco3)c3cc(Cl)ccc32)cc1` (stereo partly drawn) [Example 114, 5-Chloro-3-((2S,4R)-4-hydroxy-2-oxazol-2-yl-pyrrolidin-1-yl)-1-(4-methoxybenzenesulfonyl)-3-(2-methoxy-5-(pyrrolidin-1-ylmethyl)phenyl)-1,3-dihydroindol-2-one]: the Ki is less than 10 nM.

Turning to `CCCNCc1ccc(OC)c(C2(N3C[C@H](O)C[C@H]3c3ncco3)C(=O)N(S(=O)(=O)c3ccc(OC)cc3)c3ccc(Cl)cc32)c1` (stereo partly drawn) [Example 115, 5-Chloro-3-((2S,4R)-4-hydroxy-2-oxazol-2-yl-pyrrolidin-1-yl)-1-(4-methoxybenzenesulfonyl)-3-(2-methoxy-5-(propylaminomethyl)phenyl)-1,3-dihydroindol-2-one], the Ki is less than 10 nM.

Consider `CCCNCc1ccc(OC)c(C2(N3CCC[C@H]3c3ncco3)C(=O)N(S(=O)(=O)c3ccc(OC)cc3)c3ccc(Cl)cc32)c1` (stereo partly drawn) [Example 116, 5-Chloro-1-(4-methoxybenzenesulfonyl)-3-(2-methoxy-5-(propylaminomethyl)phenyl)-3-((S)-2-oxazol-2-yl-pyrrolidin-1-yl)-1,3-dihydroindol-2-one], for which the Ki was less than 10 nM.

`COc1ccc(S(=O)(=O)N2C(=O)C(c3cc(CN(C)C)ccc3OC)(N3CCCC3c3nccs3)c3cc(Cl)ccc32)cc1` (stereo not shown) [Example 117, 5-Chloro-3-(5-dimethylaminomethyl-2-methoxyphenyl)-1-(4-methoxybenzenesulfonyl)-3-(2-thiazol-2-yl-pyrrolidin-1-yl)-1,3-dihydroindol-2-one] had a Ki of 10 to 100 nM.

Compound `COc1ccc(S(=O)(=O)N2C(=O)C(c3cc(CN4CCCC4)ccc3OC)(N3CCCC3c3nccs3)c3cc(Cl)ccc32)cc1` (stereo not shown) [Example 118, 5-Chloro-1-(4-methoxybenzenesulfonyl)-3-(2-methoxy-5-(pyrrolidin-1-ylmethyl)phenyl)-3-(2-thiazol-2-yl-pyrrolidin-1-yl)-1,3-dihydroindol-2-one] came in with a Ki of 10 to 100 nM.

As to `COc1ccc(S(=O)(=O)N2C(=O)C(c3cc(CN4CCN(C)CC4)ccc3OC)(N3CCCC3c3nccs3)c3cc(Cl)ccc32)cc1` (stereo not shown) [Example 119, 5-Chloro-1-(4-methoxybenzenesulfonyl)-3-[2-methoxy-5-(4-methylpiperazin-1-ylmethyl)phenyl]-3-(2-thiazol-2-yl-pyrrolidin-1-yl)-1,3-dihydroindol-2-one], the Ki lay within 10 to 100 nM.

Consider `CNCc1ccc(OC)c(C2(N3CCCC3c3ccccn3)C(=O)N(S(=O)(=O)c3ccc(OC)cc3)c3ccc(Cl)cc32)c1` (stereo not shown) [Example 120, 5-Chloro-1-(4-methoxybenzenesulfonyl)-3-(2-methoxy-5-methylaminomethylphenyl)-3-(2-pyridin-2-yl-pyrrolidin-1-yl)-1,3-dihydroindol-2-one], for which the Ki was 100 to 1000 nM.

For `COc1ccc(S(=O)(=O)N2C(=O)C(c3cc(CN4CCNCC4)ccc3OC)(N3CCCC3c3nccs3)c3cc(Cl)ccc32)cc1` (stereo not shown) [Example 121, 5-Chloro-1-(4-methoxybenzenesulfonyl)-3-(2-methoxy-5-(piperazin-1-ylmethyl)phenyl)-3-(2-thiazol-2-yl-pyrrolidin-1-yl)-1,3-dihydroindol-2-one], the Ki lay within 10 to 100 nM.

In turn, `COc1ccc(S(=O)(=O)N2C(=O)C(c3cc(CN(C)C)ccc3OC)(N3CCCC3c3ccccn3)c3cc(Cl)ccc32)cc1` (stereo not shown) [Example 122, 5-Chloro-3-(5-dimethylaminomethyl-2-methoxyphenyl)-1-(4-methoxybenzenesulfonyl)-3-(2-pyridin-2-yl-pyrrolidin-1-yl)-1,3-dihydroindol-2-one] displayed a Ki of 100 to 1000 nM.

With `CCCNCc1ccc(OC)c(C2(N3CCCC3c3ccccn3)C(=O)N(S(=O)(=O)c3ccc(OC)cc3)c3ccc(Cl)cc32)c1` (stereo not shown) [Example 123, 5-Chloro-1-(4-methoxybenzenesulfonyl)-3-(2-methoxy-5-propylaminomethylphenyl)-3-(2-pyridin-2-yl-pyrrolidin-1-yl)-1,3-dihydroindol-2-one], the Ki lay within 100 to 1000 nM.

Turning to `COc1ccc(S(=O)(=O)N2C(=O)C(c3cc(CN4CCN(C)CC4)ccc3OC)(N3CCCC3c3ccccn3)c3cc(Cl)ccc32)cc1` (stereo not shown) [Example 124, 5-Chloro-1-(4-methoxybenzenesulfonyl)-3-[2-methoxy-5-(4-methylpiperazin-1-ylmethyl)phenyl]-3-(2-pyridin-2-yl-pyrrolidin-1-yl)-1,3-dihydroindol-2-one], the Ki lay in the range of 10 to 100 nM.

As to `COc1ccc(S(=O)(=O)N2C(=O)C(c3cc(CN4CCNC(=O)C4)ccc3OC)(N3CCC[C@H]3c3ncco3)c3cc(Cl)ccc32)cc1` (stereo partly drawn) [Example 125, 5-Chloro-1-(4-methoxybenzenesulfonyl)-3-[2-methoxy-5-(3-oxopiperazin-1-ylmethyl)phenyl]-3-((S)-2-oxazol-2-yl-pyrrolidin-1-yl)-1,3-dihydroindol-2-one], the Ki was 10 to 100 nM.

Broadly, the Ki is the equilibrium dissociation constant of an inhibitor or competing ligand from its target. A higher Ki goes with weaker binding.
